From US20230203059A1, “MACROCYCLIC JAK INHIBITOR AND USES THEREOF” (Biopolar Hongye (Guangdong) Pharmaceutical Co. Ltd., priority 2020, published 2023)

Key:
Type in all cases: biochemical
TYK2 = TYK2 (Homo sapiens, UniProt P29597); test: JAK kinase activity, homogeneous time-resolved fluorescence (TYK2 reaction system); conditions: ATP 2 μM, TYK2 protein 0.2 ng/μL; read-out: TYK 2 activity
Protocol: (§1) The activity measurement method of JAK kinase was to use homogeneous time-resolved fluorescence technique. The reaction was performed in 384 shallow well plates with a total reaction volume of 10 μL. The mixture of kinase protein, compound, ATP and substrate was carried out in a reaction buffer of 50 mM Hepes (pH7.0), NaN3 0.02%, BSA 0.01%, 0.1 mM Orthocanadate, 5 mM MgCl2, and 1 mM DTT. After reacting for 1 hour, an antibody capable of recognizing substrate phosphorylation, dye XL-615 and detection buffer (Cisbio) containing EDTA were added to the system. The reaction signal of kinase was detected by PE company's porous plate detector. The parameter settings were excitation light at 320 nm, emission light at 615 nm and 665 nm. The activity of JAK is indirectly reflected by the signal ratio of 665 nm and 615 nm. In the reaction, the background well without enzyme and the total enzyme activity well without compound were set.
(§2) The IC50 value of the compound inhibiting protein was obtained by the formula: Y=100/(1+10^((Log IC50−X)*HillSlope)). In JAK1 reaction system, the concentration of ATP was 2 μM, and the concentration of JAK1 protein was 0.2 ng/μL.
In TYK2 reaction system, the concentration of ATP was 2 μM, and the concentration of TYK2 protein was 0.2 ng/μL.

JAK1 = JAK1 (Homo sapiens, UniProt P23458); test: JAK kinase activity, homogeneous time-resolved fluorescence (JAK1 reaction system); conditions: ATP 2 μM, JAK1 protein 0.2 ng/μL; read-out: JAK 1 activity
JAK1, sequence (P23458 whole entry): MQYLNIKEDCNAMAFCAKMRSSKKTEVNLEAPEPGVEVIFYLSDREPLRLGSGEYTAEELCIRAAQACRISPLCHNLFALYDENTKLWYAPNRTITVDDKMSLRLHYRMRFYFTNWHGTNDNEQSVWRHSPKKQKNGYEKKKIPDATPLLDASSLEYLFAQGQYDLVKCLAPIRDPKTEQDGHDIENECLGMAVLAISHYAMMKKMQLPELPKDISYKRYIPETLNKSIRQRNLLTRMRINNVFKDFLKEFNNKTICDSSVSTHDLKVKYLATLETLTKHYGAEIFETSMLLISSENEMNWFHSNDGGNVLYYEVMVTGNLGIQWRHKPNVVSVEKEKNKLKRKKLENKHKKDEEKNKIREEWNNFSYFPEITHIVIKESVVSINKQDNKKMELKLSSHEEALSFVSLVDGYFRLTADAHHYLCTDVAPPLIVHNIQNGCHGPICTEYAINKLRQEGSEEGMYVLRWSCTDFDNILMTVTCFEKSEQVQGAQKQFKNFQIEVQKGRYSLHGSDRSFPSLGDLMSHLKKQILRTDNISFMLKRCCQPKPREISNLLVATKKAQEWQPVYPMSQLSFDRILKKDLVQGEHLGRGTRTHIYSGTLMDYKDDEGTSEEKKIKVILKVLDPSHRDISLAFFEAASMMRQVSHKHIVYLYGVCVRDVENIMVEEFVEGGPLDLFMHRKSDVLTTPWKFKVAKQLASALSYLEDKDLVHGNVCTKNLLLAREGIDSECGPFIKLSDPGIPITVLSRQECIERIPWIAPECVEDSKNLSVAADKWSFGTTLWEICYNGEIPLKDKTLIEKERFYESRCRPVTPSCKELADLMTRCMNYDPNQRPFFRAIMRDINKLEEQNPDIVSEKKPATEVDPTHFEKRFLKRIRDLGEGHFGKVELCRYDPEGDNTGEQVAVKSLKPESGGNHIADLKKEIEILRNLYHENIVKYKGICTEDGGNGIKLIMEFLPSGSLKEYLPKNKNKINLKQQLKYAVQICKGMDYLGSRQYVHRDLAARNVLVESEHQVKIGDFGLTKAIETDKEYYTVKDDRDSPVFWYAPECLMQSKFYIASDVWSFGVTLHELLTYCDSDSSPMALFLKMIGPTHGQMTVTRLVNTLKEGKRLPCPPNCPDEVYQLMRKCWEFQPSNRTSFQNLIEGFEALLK
Protocol: as §1, §2

JAK2 = JAK2 (Homo sapiens, UniProt O60674); test: JAK kinase activity, homogeneous time-resolved fluorescence (JAK2 reaction system); conditions: ATP 2 μM, JAK2 protein 0.01 ng/μL
JAK2, sequence (O60674 whole entry): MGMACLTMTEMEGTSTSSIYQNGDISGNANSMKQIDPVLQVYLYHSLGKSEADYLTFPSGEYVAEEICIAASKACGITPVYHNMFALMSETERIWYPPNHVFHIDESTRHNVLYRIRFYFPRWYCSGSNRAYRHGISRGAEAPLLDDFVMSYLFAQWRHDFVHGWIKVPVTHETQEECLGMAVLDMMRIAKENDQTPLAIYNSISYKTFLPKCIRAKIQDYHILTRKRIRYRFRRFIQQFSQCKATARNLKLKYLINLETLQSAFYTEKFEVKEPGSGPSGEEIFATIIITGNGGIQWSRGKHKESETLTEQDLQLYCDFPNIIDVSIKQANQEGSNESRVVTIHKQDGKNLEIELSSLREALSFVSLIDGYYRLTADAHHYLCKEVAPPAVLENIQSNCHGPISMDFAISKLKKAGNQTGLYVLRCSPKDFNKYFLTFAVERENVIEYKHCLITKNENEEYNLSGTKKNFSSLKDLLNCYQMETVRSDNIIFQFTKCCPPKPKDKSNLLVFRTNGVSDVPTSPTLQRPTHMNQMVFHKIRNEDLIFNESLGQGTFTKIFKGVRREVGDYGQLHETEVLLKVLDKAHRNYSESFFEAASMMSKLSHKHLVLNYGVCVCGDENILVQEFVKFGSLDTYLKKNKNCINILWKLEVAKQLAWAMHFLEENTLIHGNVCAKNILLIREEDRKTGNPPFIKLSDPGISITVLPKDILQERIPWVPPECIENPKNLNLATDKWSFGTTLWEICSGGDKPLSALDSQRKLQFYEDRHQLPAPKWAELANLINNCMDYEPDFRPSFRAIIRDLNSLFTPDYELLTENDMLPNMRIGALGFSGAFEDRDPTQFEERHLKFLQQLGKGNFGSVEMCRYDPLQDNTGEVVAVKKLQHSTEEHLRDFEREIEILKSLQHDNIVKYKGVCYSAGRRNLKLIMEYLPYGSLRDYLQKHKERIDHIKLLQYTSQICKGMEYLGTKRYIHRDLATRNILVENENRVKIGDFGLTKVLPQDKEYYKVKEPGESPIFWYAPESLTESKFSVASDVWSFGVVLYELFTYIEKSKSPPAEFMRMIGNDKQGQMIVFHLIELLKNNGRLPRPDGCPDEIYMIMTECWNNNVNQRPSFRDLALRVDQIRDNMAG
Protocol: as §1, §2
In JAK2 reaction system, the concentration of ATP was 2 μM, and the concentration of JAK2 protein was 0.01 ng/μL.

JAK3 = target: T1, JAK3 (Homo sapiens, UniProt P52333); test: JAK kinase activity, homogeneous time-resolved fluorescence (JAK3 reaction system); conditions: ATP 2 μM, JAK3 protein 0.04 ng/μL; read-out: JAK 3 activity
T1 sequence (P52333 1-1124): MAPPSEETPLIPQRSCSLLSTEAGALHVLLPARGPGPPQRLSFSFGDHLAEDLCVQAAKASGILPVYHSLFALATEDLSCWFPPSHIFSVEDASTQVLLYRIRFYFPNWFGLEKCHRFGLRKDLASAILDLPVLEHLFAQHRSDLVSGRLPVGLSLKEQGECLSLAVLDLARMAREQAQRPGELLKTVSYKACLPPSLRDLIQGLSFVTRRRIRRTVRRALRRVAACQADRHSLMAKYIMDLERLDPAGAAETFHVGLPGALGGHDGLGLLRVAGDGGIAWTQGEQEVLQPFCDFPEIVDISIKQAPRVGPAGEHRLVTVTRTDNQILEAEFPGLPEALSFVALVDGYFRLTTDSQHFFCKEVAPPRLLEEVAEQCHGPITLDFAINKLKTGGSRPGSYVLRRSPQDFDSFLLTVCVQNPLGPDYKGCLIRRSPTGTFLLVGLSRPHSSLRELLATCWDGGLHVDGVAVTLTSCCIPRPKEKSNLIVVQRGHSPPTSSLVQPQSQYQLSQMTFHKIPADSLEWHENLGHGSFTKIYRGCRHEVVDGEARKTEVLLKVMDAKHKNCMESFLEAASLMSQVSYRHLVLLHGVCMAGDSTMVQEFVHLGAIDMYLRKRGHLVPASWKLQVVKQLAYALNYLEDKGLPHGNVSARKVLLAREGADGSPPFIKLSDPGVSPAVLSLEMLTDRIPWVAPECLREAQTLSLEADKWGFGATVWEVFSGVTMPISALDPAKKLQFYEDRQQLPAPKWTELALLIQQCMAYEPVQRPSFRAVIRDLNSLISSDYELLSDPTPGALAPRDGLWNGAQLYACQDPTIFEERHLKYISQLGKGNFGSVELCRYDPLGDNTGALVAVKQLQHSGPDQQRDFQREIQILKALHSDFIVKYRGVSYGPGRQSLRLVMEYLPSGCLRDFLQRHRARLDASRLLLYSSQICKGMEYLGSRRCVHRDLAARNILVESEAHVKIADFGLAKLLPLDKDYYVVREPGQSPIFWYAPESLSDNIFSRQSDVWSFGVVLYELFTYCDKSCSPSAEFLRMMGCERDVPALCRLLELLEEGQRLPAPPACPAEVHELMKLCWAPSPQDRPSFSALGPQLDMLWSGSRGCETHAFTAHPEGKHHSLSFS
Protocol: as §1, with “The reaction was performed in 384 shallow well plates with a total reaction volume of 10 μL.” left out, “After reacting for 1 hour, an antibody capable of recognizing substrate phosphorylation, dye XL-615 and detection buffer (Cisbio) containing EDTA were added to the system.” left out, “set. […]” for “set.”
In JAK3 reaction system, the concentration of ATP was 2 μM, and the concentration of JAK3 protein was 0.04 ng/μL.

TYK2, sequence (P29597 whole entry): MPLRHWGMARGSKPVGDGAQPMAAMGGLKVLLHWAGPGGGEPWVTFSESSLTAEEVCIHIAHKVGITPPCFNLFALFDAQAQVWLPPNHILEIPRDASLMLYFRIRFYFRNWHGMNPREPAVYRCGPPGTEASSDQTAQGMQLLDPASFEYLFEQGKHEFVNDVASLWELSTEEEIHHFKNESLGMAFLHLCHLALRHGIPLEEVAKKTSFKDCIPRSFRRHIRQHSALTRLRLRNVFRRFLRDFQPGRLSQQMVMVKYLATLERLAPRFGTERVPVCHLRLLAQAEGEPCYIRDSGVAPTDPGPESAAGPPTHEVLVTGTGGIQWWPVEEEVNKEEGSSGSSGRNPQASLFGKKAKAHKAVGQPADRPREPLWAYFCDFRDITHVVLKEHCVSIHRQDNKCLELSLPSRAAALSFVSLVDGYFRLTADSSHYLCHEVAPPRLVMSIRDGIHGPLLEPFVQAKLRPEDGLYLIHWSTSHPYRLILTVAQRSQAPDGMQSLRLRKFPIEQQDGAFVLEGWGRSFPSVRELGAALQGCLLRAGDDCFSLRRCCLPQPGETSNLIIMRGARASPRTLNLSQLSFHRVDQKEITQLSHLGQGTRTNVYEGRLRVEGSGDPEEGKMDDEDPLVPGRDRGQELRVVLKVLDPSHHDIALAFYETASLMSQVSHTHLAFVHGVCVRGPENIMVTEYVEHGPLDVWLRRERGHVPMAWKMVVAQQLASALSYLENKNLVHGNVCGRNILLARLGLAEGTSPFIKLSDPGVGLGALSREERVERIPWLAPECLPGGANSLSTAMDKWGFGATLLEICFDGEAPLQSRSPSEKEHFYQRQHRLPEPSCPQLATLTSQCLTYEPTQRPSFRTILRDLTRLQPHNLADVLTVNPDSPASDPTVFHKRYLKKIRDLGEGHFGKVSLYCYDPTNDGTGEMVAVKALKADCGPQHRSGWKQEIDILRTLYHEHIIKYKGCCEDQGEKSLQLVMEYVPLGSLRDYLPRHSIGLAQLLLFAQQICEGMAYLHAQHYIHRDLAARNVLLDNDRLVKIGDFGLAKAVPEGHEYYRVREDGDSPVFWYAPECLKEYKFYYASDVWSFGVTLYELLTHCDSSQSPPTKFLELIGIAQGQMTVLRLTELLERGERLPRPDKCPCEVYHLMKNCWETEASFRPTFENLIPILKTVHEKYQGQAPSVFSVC

| IC50 (TYK2) | IC50 (JAK1) | IC50 (JAK2) | IC50 (JAK3) | Structure (SMILES) |
| --- | --- | --- | --- | --- |
| > 10000 nM | > 10000 nM | 1000 to 10000 nM | 101 to 1000 nM | O=C1NCCCCOCc2cc(ccc2Oc2ccc(F)cc2)Nc2nccc(n2)-c2ccc1cc2[N+](=O)[O-] [Example 106, 4^4-(4-fluorophenoxy)-1^2-nitro-6-o-xa-3,11-diaza-2(4,2)-pyrimidina-1(1,4),4(1,3)-dibenzenacyclo-dodecaphan-12-one] |
| > 10000 nM | 1000 to 10000 nM | 101 to 1000 nM | 101 to 1000 nM | O=C1NCCCCOCc2cc(cc(N3CCSCC3)c2)Nc2nccc(n2)-c2ccc1cc2[N+](=O)[O-] [Example 76, 1^2-nitro-4^5-thiomorpholin-6-oxa-3,11-diaza-2(4,2)-pyrimidina-1(1,4),4(1,3)-dibenzenacyclododecaphan-12-one] |
| > 10000 nM | 1000 to 10000 nM | 1000 to 10000 nM | 101 to 1000 nM | COc1cccc(F)c1COc1ccc2cc1COCC[C@H](C)CNC(=O)c1ccc(c(N)c1)-c1ccnc(n1)N2 [Example 192, (S)-1^2-amino-4^4-((2-fluoro-6-meth-oxybenzyl)oxy)-9-methyl-6-oxa-3,11-diaza-2(4,2)-pyrimidina-1(1,4),4(1,3)-dibenzenacyclo-dodecaphan-12-one] |
| 101 to 1000 nM | 101 to 1000 nM | 11 to 100 nM | 11 to 100 nM | CC(C)Oc1ccc2cc1COCC[C@@H](C)CNC(=O)c1ccc(c(N)c1)-c1ccnc(n1)N2 [Example 187, (R)-1^2-amino-4^4-isopropoxy-9-meth-yl-6-oxa-3,11-diaza-2(4,2)-pyri-midina-1(1,4),4(1,3)-dibenzenacyclo-dodecaphan-12-one] |
| 1000 to 10000 nM | 1000 to 10000 nM | 1000 to 10000 nM | 101 to 1000 nM | O=C1NCCCCOCc2cc(cc(N3CCOCC3)c2)Nc2ncc(Cl)c(n2)-c2ccc1cc2F [Example 25] |
| 1000 to 10000 nM | 1000 to 10000 nM | 101 to 1000 nM | < 10 nM | COc1cc(C#N)cc(F)c1COc1ccc2cc1COCCCCNC(=O)c1ccc(c(N)c1)-c1ccnc(n1)N2 [Example 196, 4-(((1^2-amino-12-oxo-6-oxa-3,11-diaza-2(4,2)-pyrimidina-1(1,4),4(1,3)-dibenzenacyclododecaphan-4^4-yl)oxy)methyl)-3-fluoro-5-methoxy-benzonitrile] |
| > 10000 nM | 101 to 1000 nM | 101 to 1000 nM | 101 to 1000 nM | O=C1NCCCCOCc2cc(cc(N3CCOCC3)c2)Nc2nccc(n2)-c2ccc1cc2 [Example 3, 4^5-morpholin-6-oxa-3,11-diaza-2(4,2)-pyrimidina-1(1,4),4(1,3)-dibenze-nacyclododecaphan-12-one] |
| > 10000 nM | 1000 to 10000 nM | > 10000 nM | 101 to 1000 nM | CC1CCOCc2cc(ccc2OC2CC2)Nc2nccc(n2)-c2ccc(cc2[N+](=O)[O-])C(=O)NC1 (stereo not shown) [Example 158, 4^4-cyclopropoxy-9-methyl-1^2-nitro-6-oxa-3,11-diaza-2(4,2)-pyrimi-dina-1(1,4),4(1,3)-dibenzenacyclo-dodecaphan-12-one] |
| 1000 to 10000 nM | 1000 to 10000 nM | 1000 to 10000 nM | 101 to 1000 nM | CC1(C)CCOCc2cc(ccc2OC2CCCOC2)Nc2nccc(n2)-c2ccc(cc2N)C(=O)NC1 (stereo not shown) [Example 170, 1^2-amino-9,9-dimethyl-4^4-((tetra-hydroxy-2H-pyran-3-yl)oxy)-6-oxa-3,11-diaza-2(4,2)-pyrimidina-1(1,4),4(1,3)-dibenzenacyclododecaphan-12-one] |
| 1000 to 10000 nM | 1000 to 10000 nM | 101 to 1000 nM | < 10 nM | Nc1cc2ccc1-c1ccnc(n1)Nc1ccc(OCC3CCC(F)(F)C3)c(c1)COCCCCNC2=O (stereo not shown) [Example 121, 1^2-amino-4^4-((3,3-difluorocyclo-pentyl)methoxy)-6-oxa-3,11-diaza-2(4,2)-pyrimidina-1(1,4),4(1,3)-di-benzenacyclododecaphan-12-one] |
| 1000 to 10000 nM | 101 to 1000 nM | 101 to 1000 nM | 11 to 100 nM | O=C1Nc2ccc(cc2)OCc2cc(ccc2OC2CC2)Nc2nccc(n2)-c2ccc1cc2O [Example 217, 4^4-cyclopropoxy-1^2-hydroxy-6-oxa-3,8-diaza-2(4,2)-pyrimidina-1,7(1,4),4(1,3)-tribenzenacyclononaphane-9-one] |
| > 10000 nM | 1000 to 10000 nM | 1000 to 10000 nM | 1000 to 10000 nM | Cc1cc2ccc1-c1nc(ncc1C)Nc1ccc(F)c(c1)COCCCCNC2=O [Example 45, 1^2,2^5-dimethyl-4^4-fluoro-6-oxa-3,11-diaza-2(4,2)-pyrimidina-1(1,4),4(1,3)-dibenzenacyclododecaphan-12-one] |
| 1000 to 10000 nM | 1000 to 10000 nM | 101 to 1000 nM | < 10 nM | CC1CCNC(=O)c2ccc(c(N)c2)-c2ccnc(n2)Nc2ccc(OCC3CCOC3)c(c2)COC1 (stereo not shown) [Example 136, 1^2-amino-8-methyl-4^4-((tetrahydro-furan-3-yl)methoxy)-6-oxa-3,11-diaza-2(4,2)-pyrimidina-1(1,4),4(1,3)-dibenzenacyclododecaphan-12-one] |
| 1000 to 10000 nM | 1000 to 10000 nM | 1000 to 10000 nM | 101 to 1000 nM | COc1cc(F)cc(F)c1COc1ccc2cc1COCC[C@H](C)CNC(=O)c1ccc(c(N)c1)-c1ccnc(n1)N2 [Example 191, (S)-1^2-amino-4^4-((2,4-difluoro-6-methoxybenzyl)oxy)-9-methyl-6-x-xa-3,11-diaza-2(4,2)-pyrimidina-1(1,4),4(1,3)-dibenzenacyclo-dodecaphan-12-one] |
| 1000 to 10000 nM | 101 to 1000 nM | 1000 to 10000 nM | 11 to 100 nM | Nc1cc2ccc1-c1ccnc(n1)Nc1ccc(OC3CC3)c(c1)COc1ccc(cc1F)NC2=O [Example 199, 1^2-amino-4^4-cyclopropoxy-7^2-fluoro-6-oxa-3,8-diaza-2(4,2)-pyrimidina-1,7(1,4),4(1,3)-tribenzenacyclonona-phane-9-one] |

| Structure (SMILES) | IC50 (TYK2) | IC50 (JAK1) | IC50 (JAK2) | IC50 (JAK3) |
| --- | --- | --- | --- | --- |
| CC1CCOCc2cc(ccc2OC2CCCC2)Nc2nccc(n2)-c2ccc(cc2N)C(=O)NC1 (stereo not shown) [Example 184, 1^2-amino-4^4-(cyclopentoxy)-9-meth-yl-6-oxa-3,11-diaza-2(4,2)-pyrimi-dina-1(1,4),4(1,3)-dibenzenacyclo-dodecaphan-12-one] | 1000 to 10000 nM | 1000 to 10000 nM | 101 to 1000 nM | < 10 nM |
